The values that follow come from patent US8440672B2, “Diphenyl substituted alkanes” (Merck Sharp & Dohme Corp., priority 2006, dated 2013).

pIC50: −log10 of the molar value.

For the experiment, the target named is T1, FLAP (Homo sapiens, UniProt P20292).
T1 construct: A 100,000×g pellet from human leukocyte 10,000×g supernatants (1) is the source of FLAP; from tissue; host or cells: human leukocytes (100,000 x g membrane pellet)
T1 sequence (P20292 1-161): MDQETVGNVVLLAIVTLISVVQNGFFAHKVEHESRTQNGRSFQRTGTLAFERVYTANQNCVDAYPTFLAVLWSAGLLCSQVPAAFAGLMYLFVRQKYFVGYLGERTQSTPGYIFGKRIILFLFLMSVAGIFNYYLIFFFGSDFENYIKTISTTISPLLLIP
As to the kind of experiment: FLAP Binding Assay. As to conditions: competition with radiolabelled Compound A; 100,000×g pellet membranes from human leukocyte; 20 minute incubation at room temperature. As for the experimental part:
A 100,000×g pellet from human leukocyte 10,000×g supernatants (1) is the source of FLAP. The 100,000×g pellet membranes were resuspended in Tris-Tween assay buffer (100 mM Tris HCl pH 7.4, 140 mM NaCl, 2 mM EDTA, 0.5 mM dithiothreitol, 5% glycerol, 0.05% Tween 20) to yield a final protein concentration of 50 μg to 150 μg/ml. Aliquots (100 μl) of membrane suspension were added to 12 mm×75 mm polypropylene tubes containing 100 μl Tris-Tween assay buffer, 30,000 cpm of Compound A in 5 μl MeOH:assay buffer (1:1), and 2 μl dimethyl sulfoxide or competitor (i.e., the compound to be tested) in dimethyl sulfoxide. Compound B (10 μM final concentration) was used to determine non-specific binding. After a 20 minute incubation at room temperature, tube contents were diluted to 4 ml with cold 0.1 M Tris HCl pH 7.4, 0.05% Tween 20 wash buffer and the membranes were collected by filtration of GFB filters presoaked in the wash buffer. Tubes and filters were rinsed with 2×4 ml aliquots of cold wash buffer. Filters were transferred to 12 mm×3.5 mm polystyrene tubes for determination of radioactivity by gamma-scintillation counting.
Specific binding is defined as total binding minus non-specific binding. Total binding was Compound A bound to membranes in the absence of competitor; non-specific binding was Compound A bound in the presence of 10 uM Compound B. Preparation of Compound A is described in reference 1, below. The IC50 values were obtained by computer analysis (see reference 2, below) of the experimental data.
`CC(C)C(C)(c1ccc(OCc2ccccn2)cc1)c1ccc(-c2ccc(C(C)(C)O)nn2)cn1` (stereo not shown) [Example 10Aj, 2-[6-(6-{1,2-dimethyl-1-[4-(pyridin-2-ylmethoxy)phenyl]propyl}pyridin-3-yl)pyridazin-3-yl]propan-2-ol] had a negative logarithm of the IC50 (pIC50) of 9.15. Then `COc1cncc(-c2ccc(C(C)(c3ccc(-c4noc(C5(N)CC5)n4)cn3)C(C)C)cc2)c1` (stereo not shown) [Example 2b], with 8.44; and `CC(C)C(C)(c1ccc(-c2ccc(N)nn2)cc1)c1ccc(C(C)(C)O)cn1` (stereo not shown) [Example 7Bd, 2-(6-(1-[4-(6-aminopyridazin-3-yl)phenyl]-1,2-dimethylpropyl)pyridin-3-yl)propan-2-ol], with 8.64; and `CC(C)C(C)(c1ccc(-c2cnc(N)nc2)cc1)c1ccc(-c2ccc(C(C)(C)O)nn2)cn1` (stereo not shown) [Example 4f, 2-[6-(6-{1-[4-(2-aminopyrimidin-5-yl)phenyl]-1,2-dimethylpropyl}pyridin-3-yl)pyridazin-3-yl]propan-2-ol], with 9.30. In the case of `COc1cncc(-c2ccc(C(C)(c3ccc(-c4ccc(C(F)(F)F)nn4)cn3)C(C)C)cc2)c1` (stereo not shown) [Example 4Ad, 3-(6-{1-[4-(5-methoxypyridin-3-yl)phenyl]-1,2-dimethylpropyl}pyridin-3-yl)-6-(trifluoromethyl)pyridazine] it was 8.85. In the case of `Cn1nnc(-c2ccc(C(c3ccc(OCc4ccccn4)cc3)C(C)(C)C)nc2)n1` (stereo not shown) [Example 9b, 2-{2,2-dimethyl-1-[4-(pyridin-2-ylmethoxy)phenyl]propyl}-5-(2-methyl-2H-tetrazol-5-yl)pyridine] it was 7.85; in that of `CC(C)(C)C(c1ccc(OCc2ccccn2)cc1)c1ccc(-c2nnc(N)o2)cn1` (stereo not shown) [Example 8a, 5-(6-{2,2-dimethyl-1-[4-(pyridin-2-ylmethoxy)phenyl]pronyl}pyridin-3-yl)-1,3,4-oxadiazol-2-amine], 8.24; in that of `CC(C)C(C)(c1ccc(-c2cnc(N)nc2)cc1)c1ccc(C(C)(C)O)cn1` (stereo not shown) [Example 7Ad, 2-(6-{1-[4-(2-aminopyrimidin-5-yl)phenyl]-1,2-dimethylpropyl}pyridin-3-yl)propan-2-ol], 8.92.

For `COc1cncc(-c2ccc(C(C)(c3ccc(-c4ccc(C(C)(C)O)nn4)cn3)C(C)C)cc2)c1` (stereo not shown) [Example 4d, 2-[6-(6-{1-[4-(5-methoxypyridin-3-yl)phenyl]-1,2-dimethylpropyl}pyridin-3-yl)pyridazin-3-yl]propan-2-ol], the pIC50 is 8.96.

Regarding `CC(C)C(C)(c1ccc(OCc2nccs2)cc1)c1ccc(-c2noc(C(C)(C)O)n2)cn1` (stereo not shown) [Example 10Ca, 2-[3-(6-{1,2-dimethyl-1-[4-(1,3-thiazol-2-ylmethoxy)phenyl]propyl}pyridin-3-yl)-1,2,4-oxadiazol-5-yl]propan-2-ol], the pIC50 is 8.54. `COc1cncc(-c2ccc(C(C)(c3ccc(-c4ccc(S(C)(=O)=O)nn4)cn3)C(C)C)cc2)c1` (stereo not shown) [Example 5a, 3-(6-{1-[4-(5-methoxypyridin-3-yl)phenyl]-1,2-dimethylpropyl}pyridin-3-yl)-6-(methylsulfonyl)pyridazine] had a negative-log IC50 (pIC50) of 9.15. In turn, `COC(=O)c1ccc(-c2ccc(C(C)(c3ccc(OCc4ccccn4)cc3)C(C)C)nc2)nn1` (stereo not shown) [Example 10Ah, methyl 6-(6-{1,2-dimethyl-1-[4-(pyridin-2-ylmethoxy)phenyl]propyl}pyridin-3-yl)pyridazine-3-carboxylate] had a pIC50 of 9.15. In the case of `CC(C)C(C)(c1ccc(-c2cncc(OCF)c2)cc1)c1ccc(-c2ccc(C(F)(F)F)nn2)cn1` (stereo not shown) [Example 6c, 3-[6-(1-{4-[5-(fluoromethoxy)pyridin-3-yl]phenyl}-1,2-dimethylpropyl)pyridin-3-yl]-6-(trifluoromethyl)pyridazine] it was 8.55.

As to `CC(C)C(C)(c1ccc(-c2ccc(N)nn2)cc1)c1ccc(-c2ccc(C(C)(C)O)nn2)cn1` (stereo not shown) [Example 4g, 2-[6-(6-{1-[4-(6-aminopyridazin-3-yl)phenyl]-1,2-dimethylpropyl}pyridin-3-yl)pyridazin-3-yl]propan-2-ol], the pIC50 was 9.22.

As for `COc1cncc(-c2ccc(C(C)(c3ccc(-c4noc(C(C)(C)O)n4)cn3)C(C)C)cc2)c1` (stereo not shown) [Example 1Ac, 2-[3-(6-{1-[4-(5-methoxypyridin-3-yl)phenyl]-1,2-dimethylpropyl}pyridin-3-yl)-1,2,4-oxadiazol-5-yl]propan-2-ol], the pIC50 is 8.68. Then `CC(C)C(C)(c1ccc(-c2cncc(OCc3ccccc3)c2)cc1)c1ccc(-c2ccc(C(F)(F)F)nn2)cn1` (stereo not shown) [Example 6Da, 3-[6-(1-{4-[5-(benzyloxy)pyridin-3-yl]phenyl}-1,2-dimethylpropyl)pyridin-3-yl]-6-(trifluoromethyl)pyridazine], with 8.62.
